Measured values reported in ChEMBL document CHEMBL3124792, “Discovery and preclinical characterization of the cyclopropylindolobenzazepine BMS-791325, a potent allosteric inhibitor of the hepatitis C virus NS5B polymerase” (J Med Chem, 2014).
Converted amounts (≈) assume the structure as drawn.

How the values were obtained:
[1] = Solubility of the compound in amorphous form in phosphate buffer at pH 6.5; type: physicochemical
[2] = Half life in cynomolgus monkey liver microsomes; type: ADME, Macaca fascicularis, Microsome
[3] = Half life in dog liver microsomes; type: ADME, Canis lupus familiaris
[4] = Inhibition of Hepatitis C virus genotype 1b NS5B; parameters: species or system Hepatitis C virus subtype 1b
[5] = Aqueous solubility of the compound at pH 6.5; details: buffer
CYP2D6 = CYP2D6 (Homo sapiens, UniProt P10635); assay: Inhibition of CYP2D6 (unknown origin)
Sequence of CYP2D6 (P10635 whole entry): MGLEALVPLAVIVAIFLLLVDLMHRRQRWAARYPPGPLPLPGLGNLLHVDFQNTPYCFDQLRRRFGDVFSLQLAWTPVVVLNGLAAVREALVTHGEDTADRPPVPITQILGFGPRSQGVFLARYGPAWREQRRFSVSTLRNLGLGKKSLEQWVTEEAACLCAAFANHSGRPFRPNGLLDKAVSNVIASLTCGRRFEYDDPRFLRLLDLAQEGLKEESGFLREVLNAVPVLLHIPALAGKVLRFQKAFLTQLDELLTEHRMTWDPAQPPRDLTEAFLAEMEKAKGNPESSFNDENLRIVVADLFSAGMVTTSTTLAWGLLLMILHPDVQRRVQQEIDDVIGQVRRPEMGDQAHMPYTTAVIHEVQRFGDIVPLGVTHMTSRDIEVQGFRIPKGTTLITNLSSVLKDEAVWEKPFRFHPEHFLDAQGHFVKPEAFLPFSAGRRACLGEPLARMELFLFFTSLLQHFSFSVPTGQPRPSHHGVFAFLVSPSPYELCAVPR

Enterovirus C = assay: Antiviral activity against Poliovirus; type: functional, organism-based
[6] = Cmax in rat at 10 mg/kg, po; type: ADME, organism-based; parameters: dose 10 mg/kg, route oral; details: in vivo
[7] = AUC (0 to infinity) in rat at 10 mg/kg, po; type: ADME, organism-based; parameters: time infinity, dose 10 mg/kg, route oral; details: plasma
Hepatitis C virus [8] = assay: Antiviral activity against Hepatitis C virus Con1 genotype 1b infected in human HuH7 cells after 3 days by FRET assay in presence of 40% human serum; type: functional, organism-based, Hepacivirus hominis; details: isolate Con1, Huh-7, 72 h
Liver microsome [9] = details: rat, microsomes
[10] = Aqueous solubility of the compound at pH 2.2; details: buffer
[11] = Inhibition of Hepatitis C virus genotype 5a NS5B; parameters: species or system Hepatitis C virus subtype 5a
CYP2C9 = CYP2C9 (Homo sapiens, UniProt P11712); assay: Inhibition of CYP2C9 (unknown origin)
Sequence of CYP2C9 (P11712 whole entry): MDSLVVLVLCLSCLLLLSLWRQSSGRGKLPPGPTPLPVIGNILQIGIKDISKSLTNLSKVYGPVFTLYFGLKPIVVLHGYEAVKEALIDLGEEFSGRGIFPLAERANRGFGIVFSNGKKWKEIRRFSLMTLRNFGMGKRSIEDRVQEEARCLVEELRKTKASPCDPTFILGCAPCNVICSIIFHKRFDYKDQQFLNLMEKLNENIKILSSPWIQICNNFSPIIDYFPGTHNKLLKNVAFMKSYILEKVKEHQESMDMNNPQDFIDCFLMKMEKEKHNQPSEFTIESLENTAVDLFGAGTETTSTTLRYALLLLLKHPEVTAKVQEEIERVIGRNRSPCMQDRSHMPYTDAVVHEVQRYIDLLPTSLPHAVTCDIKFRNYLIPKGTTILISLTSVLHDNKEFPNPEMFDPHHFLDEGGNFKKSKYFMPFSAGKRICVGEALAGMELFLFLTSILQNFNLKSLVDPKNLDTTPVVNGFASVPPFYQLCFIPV

[12] = test system: Human immunodeficiency virus; assay: Antiviral activity against Human immunodeficiency virus; type: functional, organism-based; details: Human immunodeficiency virus 1
Hepatitis C virus [13] = assay: Antiviral activity against Hepatitis C virus H77c genotype 1a infected in human HuH7 cells after 3 days by FRET assay; type: functional, organism-based, Hepacivirus hominis; details: genotype 1a H77, Huh-7, 72 h
[14] = target: T1, Voltage-gated inwardly rectifying potassium channel KCNH2 (Homo sapiens, UniProt Q12809); assay: Inhibition of human ERG by fluorescence-based thallium flux assay
T1 sequence (Q12809 whole entry): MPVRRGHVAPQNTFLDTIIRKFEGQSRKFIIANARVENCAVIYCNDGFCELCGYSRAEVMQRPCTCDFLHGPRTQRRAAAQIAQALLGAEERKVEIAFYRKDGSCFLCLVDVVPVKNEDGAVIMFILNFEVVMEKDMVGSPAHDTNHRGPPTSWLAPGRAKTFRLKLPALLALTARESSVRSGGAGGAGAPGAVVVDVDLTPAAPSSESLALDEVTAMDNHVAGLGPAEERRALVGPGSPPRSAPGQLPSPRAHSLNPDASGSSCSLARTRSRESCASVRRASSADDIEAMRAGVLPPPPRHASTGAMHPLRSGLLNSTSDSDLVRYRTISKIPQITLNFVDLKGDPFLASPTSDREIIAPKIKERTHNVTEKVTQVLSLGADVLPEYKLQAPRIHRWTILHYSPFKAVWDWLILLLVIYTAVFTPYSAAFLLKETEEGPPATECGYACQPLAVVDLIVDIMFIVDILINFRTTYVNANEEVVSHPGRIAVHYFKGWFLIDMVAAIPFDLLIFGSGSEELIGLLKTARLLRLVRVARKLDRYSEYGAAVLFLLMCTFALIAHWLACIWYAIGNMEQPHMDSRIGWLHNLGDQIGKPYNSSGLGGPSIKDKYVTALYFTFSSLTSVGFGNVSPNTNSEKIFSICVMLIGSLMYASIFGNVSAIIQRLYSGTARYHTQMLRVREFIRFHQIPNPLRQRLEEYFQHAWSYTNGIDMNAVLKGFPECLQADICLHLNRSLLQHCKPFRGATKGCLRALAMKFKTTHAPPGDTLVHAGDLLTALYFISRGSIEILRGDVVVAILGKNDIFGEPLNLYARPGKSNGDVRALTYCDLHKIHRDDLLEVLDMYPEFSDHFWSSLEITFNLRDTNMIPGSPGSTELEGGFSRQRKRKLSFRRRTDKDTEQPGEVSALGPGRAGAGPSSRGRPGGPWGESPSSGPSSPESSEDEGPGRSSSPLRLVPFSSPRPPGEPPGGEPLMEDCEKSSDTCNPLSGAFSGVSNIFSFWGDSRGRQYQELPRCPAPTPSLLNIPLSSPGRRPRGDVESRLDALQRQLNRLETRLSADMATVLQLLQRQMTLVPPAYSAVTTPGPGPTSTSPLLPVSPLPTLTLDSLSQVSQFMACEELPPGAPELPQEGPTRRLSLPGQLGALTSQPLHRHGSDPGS

[15] = test system: unidentified influenza virus; assay: Antiviral activity against Influenza virus; type: functional, organism-based
in vivo = details: rat, po, 10 mg/kg
[16] = Protein binding in human serum; type: ADME, cell-free; details: read-out: PB (converted)
Liver microsome [17] = details: human, microsomes
Cytochrome P450 3A4 = Cytochrome P450 3A4 (Homo sapiens, UniProt P08684); assay: Inhibition of CYP3A4 (unknown origin); type: ADME
Sequence of Cytochrome P450 3A4 (P08684 whole entry): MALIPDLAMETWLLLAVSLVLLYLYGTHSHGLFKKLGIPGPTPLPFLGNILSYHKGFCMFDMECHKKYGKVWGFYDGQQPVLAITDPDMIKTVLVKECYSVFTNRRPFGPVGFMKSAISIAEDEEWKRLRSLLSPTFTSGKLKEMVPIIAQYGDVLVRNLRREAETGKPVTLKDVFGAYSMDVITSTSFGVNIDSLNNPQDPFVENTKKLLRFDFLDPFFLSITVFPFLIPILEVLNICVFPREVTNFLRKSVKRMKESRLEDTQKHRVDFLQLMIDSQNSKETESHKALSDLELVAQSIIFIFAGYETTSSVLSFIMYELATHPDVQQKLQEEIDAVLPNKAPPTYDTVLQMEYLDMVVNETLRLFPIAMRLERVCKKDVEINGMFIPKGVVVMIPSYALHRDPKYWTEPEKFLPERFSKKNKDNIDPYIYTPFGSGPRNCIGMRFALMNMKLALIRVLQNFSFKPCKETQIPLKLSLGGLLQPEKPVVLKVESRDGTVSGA

Coronaviridae = assay: Antiviral activity against Coronavirus; type: functional, organism-based
Coxsackievirus = assay: Antiviral activity against Coxsackievirus; type: functional, organism-based
[18] = Cytotoxicity against human HuH7 cells by Alamar blue assay; type: cell-based; details: Huh-7 cells
[19] = Tmax in rat at 10 mg/kg, po; type: ADME, organism-based; parameters: dose 10 mg/kg, route oral; details: in vivo
[20] = test system: Bovine viral diarrhea virus 1; assay: Antiviral activity against Bovine viral diarrhea virus; type: functional, organism-based; details: Bovine viral diarrhea virus isolates and strains
[21] = Half life in rat at 5 mg/kg, iv; details: in vivo
Rattus norvegicus = assay: AUC (0 to infinity) in rat at 5 mg/kg, iv; type: ADME, organism-based, Plasma; parameters: time infinity, dose 5 mg/kg, route intravenous; details: in vivo
[22] = Half life in human liver microsomes; type: ADME
[23] = Cmax in rat at 5 mg/kg, iv; type: ADME, organism-based; parameters: dose 5 mg/kg, route intravenous; details: in vivo
Hepatitis C virus [24] = assay: Antiviral activity against Hepatitis C virus genotype 2a by cell-based assay; type: functional, organism-based, Hepacivirus hominis
[25] = Aqueous solubility of the compound at pH 7.8; details: buffer
[26] = Inhibition of Hepatitis C virus genotype 3a NS5B; parameters: species or system Hepatitis C virus subtype 3a
CYP2C19 = CYP2C19 (Homo sapiens, UniProt P33261); assay: Inhibition of CYP2C19 (unknown origin)
Sequence of CYP2C19 (P33261 whole entry): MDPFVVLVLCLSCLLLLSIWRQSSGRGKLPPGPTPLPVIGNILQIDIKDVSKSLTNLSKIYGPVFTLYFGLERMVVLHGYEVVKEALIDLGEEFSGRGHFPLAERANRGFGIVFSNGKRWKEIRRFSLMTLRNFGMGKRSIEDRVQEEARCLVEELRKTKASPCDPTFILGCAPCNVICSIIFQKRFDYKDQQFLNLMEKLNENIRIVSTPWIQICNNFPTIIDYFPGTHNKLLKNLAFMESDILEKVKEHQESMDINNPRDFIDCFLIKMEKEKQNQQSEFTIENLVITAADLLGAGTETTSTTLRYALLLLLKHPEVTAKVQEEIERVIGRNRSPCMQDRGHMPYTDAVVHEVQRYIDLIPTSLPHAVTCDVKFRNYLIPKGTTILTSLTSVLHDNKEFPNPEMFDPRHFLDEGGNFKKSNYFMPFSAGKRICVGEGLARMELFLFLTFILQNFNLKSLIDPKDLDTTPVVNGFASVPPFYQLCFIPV

[27] = Inhibition of HCV Con1 genotype 1b recombinant wild-type NS5B polymerase-mediated incorporation of radiolabeled nucleotides by scintillation proximity assay; parameters: species or system Hepatitis C virus (isolate Con1)
[28] = target: T1, Voltage-gated inwardly rectifying potassium channel KCNH2; assay: Inhibition of human ERG by patch-clamp assay
CYP1A2 = CYP1A2 (Homo sapiens, UniProt P05177); assay: Inhibition of CYP1A2 (unknown origin)
Sequence of CYP1A2 (P05177 whole entry): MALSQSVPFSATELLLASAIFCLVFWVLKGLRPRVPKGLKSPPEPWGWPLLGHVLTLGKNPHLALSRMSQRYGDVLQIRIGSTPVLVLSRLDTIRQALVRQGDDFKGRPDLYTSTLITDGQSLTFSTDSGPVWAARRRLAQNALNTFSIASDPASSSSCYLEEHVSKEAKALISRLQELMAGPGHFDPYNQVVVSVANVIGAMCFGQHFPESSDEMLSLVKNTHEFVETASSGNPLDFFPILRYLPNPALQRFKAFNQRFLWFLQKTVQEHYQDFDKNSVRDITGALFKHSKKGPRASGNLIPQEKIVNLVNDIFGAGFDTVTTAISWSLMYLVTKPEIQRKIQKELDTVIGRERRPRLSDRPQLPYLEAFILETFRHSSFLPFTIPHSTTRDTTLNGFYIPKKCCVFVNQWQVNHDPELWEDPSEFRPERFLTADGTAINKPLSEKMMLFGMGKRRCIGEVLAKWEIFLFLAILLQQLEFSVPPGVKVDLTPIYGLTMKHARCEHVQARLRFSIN

[29] = Inhibition of Hepatitis C virus genotype 1a NS5B; parameters: species or system Hepatitis C virus subtype 1a
[30] = Half life in rat at 10 mg/kg, po; details: in vivo
PXR (NR1I2) = target: T2, PXR (NR1I2) (Homo sapiens, UniProt O75469); assay: Transactivation of human PXR expressed in human HepG2 cells at 5.56 uM by luciferase reporter gene assay relative to control; type: cell-based; details: HepG2 cells that express human PXR, read-out: %max
T2 sequence (O75469 whole entry): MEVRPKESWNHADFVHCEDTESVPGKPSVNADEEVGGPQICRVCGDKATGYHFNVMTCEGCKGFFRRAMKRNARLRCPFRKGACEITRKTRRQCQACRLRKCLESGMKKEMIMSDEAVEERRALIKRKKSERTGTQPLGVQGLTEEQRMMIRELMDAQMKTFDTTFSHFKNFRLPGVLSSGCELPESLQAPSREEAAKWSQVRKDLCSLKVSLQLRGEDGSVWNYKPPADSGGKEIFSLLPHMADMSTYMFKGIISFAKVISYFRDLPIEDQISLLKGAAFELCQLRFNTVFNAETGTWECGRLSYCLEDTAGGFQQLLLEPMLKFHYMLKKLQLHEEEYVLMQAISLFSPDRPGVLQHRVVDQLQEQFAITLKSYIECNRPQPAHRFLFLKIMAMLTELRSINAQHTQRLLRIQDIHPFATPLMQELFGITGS

[31] = Volume of distribution in rat at 5 mg/kg, iv; details: in vivo
Hepatitis C virus [32] = assay: Antiviral activity against Hepatitis C virus genotype 1a by cell-based assay; type: functional, organism-based, Hepacivirus hominis; details: subtype 1a
[33] = Inhibition of human phosphodiesterase 4 by functional assay
[34] = Permeability of the compound at pH 7.4 by PAMPA; type: physicochemical; details: read-out: permeability
Enterovirus = assay: Antiviral activity against Rhinovirus; type: functional, organism-based
[35] = Half life in rat liver microsomes; type: ADME
[36] = Inhibition of Hepatitis C virus genotype 4a NS5B; parameters: species or system Hepatitis C virus subtype 4a
Homo sapiens = species on record: Homo sapiens; assay: Inhibition of human phosphodiesterase 4 at 10 uM relative to control
[37] = AUC (0 to 4 hrs) in rat at 10 mg/kg, po; type: ADME, organism-based; parameters: time < 4 hr, dose 10 mg/kg, route oral; details: plasma
[38] = Plasma concentration in rat at 5 mg/kg, iv after 4 hrs; type: ADME, organism-based; parameters: dose 5 mg/kg, route intravenous
[39] = target: T3, Nuclear receptor subfamily 1 group I member 2 (Homo sapiens, UniProt O75469); assay: Transactivation of human PXR expressed in human HepG2 cells by luciferase reporter gene assay; type: cell-based
T3 sequence (O75469 whole entry): T2 sequence (O75469 whole entry)

[40] = Drug uptake in rat liver at 5 mg/kg, iv after 4 hrs; type: ADME, organism-based; parameters: dose 5 mg/kg, route intravenous; details: read-out: Drug uptake
[41] = Drug uptake in rat liver at 10 mg/kg, po after 4 hrs; type: ADME, organism-based; parameters: dose 10 mg/kg, route oral; details: read-out: Drug uptake
[42] = Plasma clearance in rat at 5 mg/kg, iv; type: ADME, organism-based; parameters: dose 5 mg/kg, route intravenous
[43] = AUC (0 to 4 hrs) in rat at 5 mg/kg, iv; type: ADME, organism-based; parameters: time < 4 hr, dose 5 mg/kg, route intravenous; details: plasma
[44] = Plasma concentration in rat at 10 mg/kg, po after 4 hrs; type: ADME, organism-based; parameters: dose 10 mg/kg, route oral
Hepatitis C virus [45] = assay: Antiviral activity against Hepatitis C virus Con1 genotype 1b infected in human HuH7 cells after 3 days by FRET assay; type: functional, organism-based, Hepacivirus hominis; details: isolate Con1, Huh-7, 72 h

SMILES: COc1ccc2c(c1)[C@@H]1C[C@]1(C(=O)N1[C@@H]3CC[C@H]1CN(C)C3)Cn1c-2c(C2CCCCC2)c2ccc(C(=O)NS(=O)(=O)N(C)C)cc21 [BECLABUVIR]
- solubility [1]: 29 µg/mL (≈ 43.9 µM)
- half-life [2]: 0.383 h
- half-life [3]: > 3.33 h
- IC50 [4]: 4 nM
- solubility [5]: 20 µg/mL (≈ 30.3 µM)
- IC50 (CYP2D6): > 40000 nM
- EC50 (Enterovirus C): > 14000 nM
- Cmax [6]: 3260 nM
- AUC(0-inf) [7]: 39.3 µM·h
- EC50 (Hepatitis C virus [8]): 28 nM
- Stability (Liver microsome [9]): 99%
- solubility [10]: > 1600 µg/mL
- IC50 [11]: 5 nM
- IC50 (CYP2C9): > 40000 nM
- EC50 [12]: > 14000 nM
- EC50 (Hepatitis C virus [13]): 3 nM
- IC50 [14]: 24500 nM
- EC50 [15]: > 14000 nM
- bioavailability (in vivo): 66%
- fraction unbound [16]: 0.02
- Stability (Liver microsome [17]): 90%
- IC50 (Cytochrome P450 3A4): > 40000 nM
- EC50 (Coronaviridae): > 14000 nM
- EC50 (Coxsackievirus): > 14000 nM
- CC50 [18]: > 10000 nM
- Tmax [19]: 5.3 h
- EC50 [20]: > 14000 nM
- half-life [21]: 11.5 h
- AUC (Rattus norvegicus): 30 µM·h
- half-life [22]: 0.883 h
- Cmax [23]: 12100 nM
- EC50 (Hepatitis C virus [24]): 87 nM
- solubility [25]: > 1600 µg/mL
- IC50 [26]: 2 nM
- IC50 (CYP2C19): > 40000 nM
- IC50 [27]: 20 nM
- IC50 [28]: 12400 nM
- IC50 (CYP1A2): > 40000 nM
- IC50 [29]: 3 nM
- half-life [30]: 8.3 h
- activity at 5.56 µM (PXR (NR1I2)): 8.1%
- Vd [31]: 2.7 L/kg
- EC50 (Hepatitis C virus [32]): 3 nM
- IC50 [33]: 10000 nM
- Papp [34]: 64 ×10⁻⁶ cm/s
- EC50 (Enterovirus): > 14000 nM
- half-life [35]: > 3.33 h
- IC50 [36]: 20 nM
- inhibition (Homo sapiens): 57%

SMILES: COc1ccc2c(c1)C1CC1(C(=O)N1C[C@@H](C)N(C)[C@@H](C)C1)Cn1c-2c(C2CCCCC2)c2ccc(C(=O)NS(=O)(=O)N(C)C)cc21 (mixture of isomers)
- solubility [1]: 34 µg/mL (≈ 51.4 µM)
- AUC(0-t) at 4 h [37]: 0.516 µM·h
- EC50 (Hepatitis C virus [8]): 46 nM
- Stability (Liver microsome [9]): 99%
- concentration at 4 h [38]: 67 nM
- EC50 (Hepatitis C virus [13]): 14 nM
- Stability (Liver microsome [17]): 88%
- CC50 [18]: 8000 nM
- EC50 [39]: > 50000 nM
- concentration at 4 h [40]: 1860 nM
- concentration at 4 h [41]: 9700 nM
- clearance [42]: 29 mL/min/kg
- AUC(0-t) at 4 h [43]: 4.29 µM·h
- concentration at 4 h [44]: 158 nM
- Papp [34]: 48 ×10⁻⁶ cm/s
- EC50 (Hepatitis C virus [45]): 17 nM
